These are literature values, as cited in patent publication US11260065B2, “Storage-stable ready-to-use injectable formulations of thiotepa” (RK Pharma Solutions LLC, priority 2018, dated 2022).

Molecules are shown by their SMILES.

For series [1] the following is noted: water and organic solvents.
The conditions of series [2]: acid medium.

Turning to `S=P(N1CC1)(N1CC1)N1CC1` [Thiotepa, tris(1-aziridinyl)phosphine sulfide], the Solubility entry in series [1] was “soluble in water and organic solvents”. In addition, the Stability result in series [2] is listed as “unstable in acid medium”.
